The values below come from patent US20250122223A1, “HETEROCYCLIC COMPOUNDS AS UBIQUITIN SPECIFIC PROTEASE 7 INHIBITORS” (ALMAC DISCOVERY LIMITED, priority 2022, published 2025).

The target in the assay is USP7 (Homo sapiens (Human), UniProt Q93009). Kind of assay: USP7 fluorescence polarisation (FP) assay with ubiquitin-Lys-TAMRA substrate. It is filed as biochemical. The conditions noted are these: biochemical inhibition. As for the experimental part: USP7 activity was monitored in a fluorescence polarisation (FP) homogeneous assay using the isopeptide ubiquitin-Lys-TAMRA substrate (U-558, Boston Biochem). Full-length USP7 was purchased from Boston Biochem (His6-USP7FL, E-519). Unless otherwise stated, all other reagents were purchased from Sigma-Aldrich. Enzymatic reactions were conducted in black flat-bottom low volume polystyrene 384-well plates (Grenier) and 15 μL total volume. USP7 (2.5 nM, 5 μL) was incubated in assay buffer (50 mM HEPES (pH 7.2), 150 mM NaCl, 5 mM DTT, 0.05% BSA (w/v), 0.05% CHAPS) in the presence or absence of inhibitor (5 μL). Inhibitors were stored as 10 mM DMSO stocks in an inert environment (low humidity, dark, low oxygen, room temperature) using a Storage Pod System and serial dilutions were prepared in buffer just prior to the assay (from 200 to 0.003 μM, 11 dp curve). Following incubation at room temperature for 30 min, the enzymatic reactions were initiated by dispensing the Ub substrate (50 nM, 5 μL). FP was measured every 5 min over a period of 1.5 h (within the linear range of the assay) using a Pherastar FSX (BMG Labtech) exciting at 530 nm and measuring the amount of parallel and perpendicular light at 575 nm. The FP signal was subsequently normalised to the control without compound present. Data were plotted and fitted, and the concentrations resulting in 50% inhibition (IC50) were calculated using the non-linear regression curve fitting model using GraphPad Prism.
Sequence of USP7 (Q93009 whole entry): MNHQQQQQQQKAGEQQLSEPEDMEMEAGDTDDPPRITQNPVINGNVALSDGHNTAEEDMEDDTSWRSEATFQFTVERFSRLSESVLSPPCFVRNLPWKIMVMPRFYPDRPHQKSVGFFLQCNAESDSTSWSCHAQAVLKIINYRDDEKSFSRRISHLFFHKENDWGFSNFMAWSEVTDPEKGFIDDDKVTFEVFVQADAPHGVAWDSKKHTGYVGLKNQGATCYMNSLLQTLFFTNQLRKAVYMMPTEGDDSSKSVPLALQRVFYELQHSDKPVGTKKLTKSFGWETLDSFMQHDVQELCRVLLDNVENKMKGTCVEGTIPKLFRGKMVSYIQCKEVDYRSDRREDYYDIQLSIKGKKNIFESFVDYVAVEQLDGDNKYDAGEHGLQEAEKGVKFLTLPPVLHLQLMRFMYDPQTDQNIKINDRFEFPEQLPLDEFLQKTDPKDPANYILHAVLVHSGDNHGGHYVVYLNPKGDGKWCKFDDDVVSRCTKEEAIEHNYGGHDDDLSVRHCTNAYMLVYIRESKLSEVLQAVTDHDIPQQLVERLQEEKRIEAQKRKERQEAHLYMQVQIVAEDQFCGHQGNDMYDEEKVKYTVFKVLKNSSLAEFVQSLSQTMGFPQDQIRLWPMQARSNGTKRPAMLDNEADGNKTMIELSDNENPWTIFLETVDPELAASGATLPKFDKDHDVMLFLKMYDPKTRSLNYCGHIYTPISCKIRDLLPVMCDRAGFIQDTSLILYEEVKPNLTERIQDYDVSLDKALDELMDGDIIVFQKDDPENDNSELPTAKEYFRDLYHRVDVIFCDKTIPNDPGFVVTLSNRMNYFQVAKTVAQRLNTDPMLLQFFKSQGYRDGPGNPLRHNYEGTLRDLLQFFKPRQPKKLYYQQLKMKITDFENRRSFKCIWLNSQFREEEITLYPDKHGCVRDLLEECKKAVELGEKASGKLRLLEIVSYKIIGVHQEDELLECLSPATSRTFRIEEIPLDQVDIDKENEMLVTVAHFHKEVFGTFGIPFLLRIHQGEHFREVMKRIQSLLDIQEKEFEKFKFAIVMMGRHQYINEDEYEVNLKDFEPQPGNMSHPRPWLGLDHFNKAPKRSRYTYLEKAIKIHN
In general terms: In fluorescence polarisation assays a small probe gives low polarisation when free and higher when bound to something large.

[1] abbreviates: read-out: USP7 IC50 activity (Table 3a, classes).
[2] abbreviates: unit not given in Table 3b (Table 1 and key of Table 3a use μM), read-out: USP7 IC50 activity (Table 3b).

Where two headings read alike, the source gives them in different places.

The term IC50 denotes the concentration that inhibits the measured activity by half. Consider `C[C@H]1CN[C@H](c2ccc(-n3c(Cl)cc4c(=O)n(CC5(O)CCN(C(=O)c6ccc(F)c(F)c6)CC5)cnc43)cc2)CO1` [Example 37, 6-Chloro-3-((1-(3,4-difluorobenzoyl)-4-hydroxypiperidin-4-yl)methyl)-7-(4-((3R,6S)-6-methylmorpholin-3-yl)phenyl)-3,7-dihydro-4H-pyrrolo[2,3-d]pyrimidin-4-one], for which the IC50 is 0.25 to 2 µM under setting [1] and 0.254 µM under setting [2].
In the same order, the values of `O=C(c1ccc(Cl)cc1)N1CCC(O)(Cn2cnc3c(cc(Cl)n3-c3ccc([C@@H]4COCCN4)cc3)c2=O)CC1` (single isomer, unassigned) [Example 77] are < 0.1 µM and 0.052 µM.
The like results for `Cc1cc(-n2c(Cl)cc3c(=O)n(CC4(O)CCN(C(=O)c5cccc(Cl)c5)CC4)cnc32)ccc1[C@H]1CO[C@H](C)CN1` [Example 51, 6-Chloro-3-((1-(3-chlorobenzoyl)-4-hydroxypiperidin-4-yl)methyl)-7-(3-methyl-4-((3S,6R)-6-methylmorpholin-3-yl)phenyl)-3,7-dihydro-4H-pyrrolo[2,3-d]pyrimidin-4-one] were, in that order, < 0.1 µM and 0.258 µM.
In the same order, the values of `C[C@H]1CN[C@H](c2ccc(-n3c(Cl)cc4c(=O)n(CC5(O)CCN(C(=O)c6cccc(F)c6F)CC5)cnc43)cc2)CO1` [Example 39, 6-Chloro-3-((1-(2,3-difluorobenzoyl)-4-hydroxypiperidin-4-yl)methyl)-7-(4-((3R,6S)-6-methylmorpholin-3-yl)phenyl)-3,7-dihydro-4H-pyrrolo[2,3-d]pyrimidin-4-one] are 0.25 to 2 µM and 1.15 µM.
As for `O=C(C[C@H](c1ccccc1)C(F)(F)F)N1CCC(O)(Cn2cnc3c(cc(Cl)n3-c3ccc([C@H]4COCCN4)c(Cl)c3)c2=O)CC1` (mixture of isomers) [Example 86, 6-Chloro-7-(3-chloro-4-((S)-morpholin-3-yl)phenyl)-3-((4-hydroxy-1-((R)-4,4,4-trifluoro-3-phenylbutanoyl)piperidin-4-yl)methyl)-3,7-dihydro-4H-pyrrolo[2,3-d]pyrimidin-4-one and 6-chloro-7-(3-chloro-4-((R)-morpholin-3-yl)phenyl)-3-((4-hydroxy-1-((R)-4,4,4-trifluoro-3-phenylbutanoyl)piperidin-4-yl)methyl)-3,7-dihydro-4H-pyrrolo[2,3-d]pyrimidin-4-one (1:1)], the IC50 by setting is: under setting [1], 0.1 to 0.25 µM; under setting [2], 0.134 µM.
For the molecule `Cc1ccc(C(=O)N2CCC(O)(Cn3cnc4c(cc(Cl)n4-c4ccc([C@H]5CO[C@H](C)CN5)c(C)c4)c3=O)CC2)cc1` [Example 55], under setting [1], the IC50 was 0.1 to 0.25 µM.
For `O=C(c1ccc(Cl)cc1)N1CCC(O)(Cn2cnc3c(cc(Cl)n3-c3ccc(C4COC5CC5N4)cc3)c2=O)CC1` (stereo not shown) [Example 60, 7-(4-(2-Oxa-5-azabicyclo[4.1.0]heptan-4-yl)phenyl)-6-chloro-3-((1-(4-chlorobenzoyl)-4-hydroxypiperidin-4-yl)methyl)-3,7-dihydro-4H-pyrrolo[2,3-d]pyrimidin-4-one], the IC50 reads like this: under setting [1], 0.25 to 2 µM; under setting [2], 0.313 µM.
The like results for `Cc1ccc(C(=O)N2CCC(O)(Cn3cnc4c(cc(Cl)n4-c4ccc([C@@H]5CO[C@@H](C)CN5)cc4)c3=O)CC2)c(C)c1` [Example 59, 6-Chloro-3-((1-(2,4-dimethylbenzoyl)-4-hydroxypiperidin-4-yl)methyl)-7-(4-((3R,6S)-6-methylmorpholin-3-yl)phenyl)-3,7-dihydro-4H-pyrrolo[2,3-d]pyrimidin-4-one] were, in that order, 0.25 to 2 µM and 0.545 µM.
For the molecule `C[C@H]1CN[C@H](c2ccc(-n3c(Cl)cc4c(=O)n(CC5(O)CCN(C(=O)C[C@H](c6ccccc6)C(F)(F)F)CC5)cnc43)cc2)CO1` [Example 7, 6-Chloro-3-((4-hydroxy-1-((R)-4,4,4-trifluoro-3-phenylbutanoyl)piperidin-4-yl)methyl)-7-(4-((3R,6S)-6-methylmorpholin-3-yl)phenyl)-3,7-dihydro-4H-pyrrolo[2,3-d]pyrimidin-4-one], the IC50 was < 0.1 µM under setting [1] and 0.016 µM under setting [2].
With `C[C@H]1CN[C@H](c2ccc(-n3c(Cl)cc4c(=O)n(CC5(O)CCN(C(=O)C6(C)CC6)CC5)cnc43)cc2)CO1` [Example 101, 6-Chloro-3-((4-hydroxy-1-(1-methylcyclopropane-1-carbonyl)piperidin-4-yl)methyl)-7-(4-((3R,6S)-6-methylmorpholin-3-yl)phenyl)-3,7-dihydro-4H-pyrrolo[2,3-d]pyrimidin-4-one], the IC50 under setting [1] is < 0.1 µM and the IC50 under setting [2] was determined as 0.057 µM.
Regarding `C[C@H]1CN[C@H](c2ccc(-n3c(Cl)cc4c(=O)n(CC5(O)CCN(C(=O)[C@]6(C)C[C@H]6C(F)F)CC5)cnc43)cc2)CO1` [Example 112, 6-Chloro-3-((1-((1R,2R)-2-(difluoromethyl)-1-methylcyclopropane-1-carbonyl)-4-hydroxypiperidin-4-yl)methyl)-7-(4-((3R,6S)-6-methylmorpholin-3-yl)phenyl)-3,7-dihydro-4H-pyrrolo[2,3-d]pyrimidin-4-one], the IC50 by setting is: under setting [1], < 0.1 µM; under setting [2], 0.018 µM.
The like results for `C[C@H]1CN[C@H](c2ccc(-n3c(Cl)cc4c(=O)n(CC5(O)CCN(C(=O)c6ccc(Cl)cc6)CC5)cnc43)cc2)CO1` [Example 4, 6-Chloro-3-((1-(4-chlorobenzoyl)-4-hydroxypiperidin-4-yl)methyl)-7-(4-((3R,6S)-6-methylmorpholin-3-yl)phenyl)-3,7-dihydro-4H-pyrrolo[2,3-d]pyrimidin-4-one] were, in that order, 0.1 to 0.25 µM and 0.222 µM.
For `C[C@H]1CN[C@H](c2ccc(-n3c(Cl)cc4c(=O)n(CC5(O)CCN(C(=O)c6cccc(F)c6)CC5)cnc43)cc2)CO1` [Example 38, 6-Chloro-3-((1-(3-fluorobenzoyl)-4-hydroxypiperidin-4-yl)methyl)-7-(4-((3R,6S)-6-methylmorpholin-3-yl)phenyl)-3,7-dihydro-4H-pyrrolo[2,3-d]pyrimidin-4-one], the IC50 runs as follows: under setting [1], 0.25 to 2 µM; under setting [2], 0.302 µM.
The like results for `CC[C@H]1CN[C@H](c2ccc(-n3c(Cl)cc4c(=O)n(CC5(O)CCN(C(=O)c6ccc(Cl)cc6)CC5)cnc43)cc2)CO1` [Example 46, 6-Chloro-3-((1-(4-chlorobenzoyl)-4-hydroxypiperidin-4-yl)methyl)-7-(4-((3R,6S)-6-ethylmorpholin-3-yl)phenyl)-3,7-dihydro-4H-pyrrolo[2,3-d]pyrimidin-4-one] were, in that order, 0.1 to 0.25 µM and 0.162 µM.
The like results for `O=C(c1ccc(Cl)cc1)N1CCC(O)(Cn2cnc3c(cc(Cl)n3-c3ccc([C@@H]4COC5(CCC5)CN4)cc3)c2=O)CC1` (racemic) [Example 44, 7-(4-(5-Oxa-8-azaspiro[3.5]nonan-7-yl)phenyl)-6-chloro-3-((1-(4-chlorobenzoyl)-4-hydroxypiperidin-4-yl)methyl)-3,7-dihydro-4H-pyrrolo[2,3-d]pyrimidin-4-one] were, in that order, 0.1 to 0.25 µM and 0.113 µM.
On to `C[C@H]1CN[C@H](c2ccc(-n3c(Cl)cc4c(=O)n(CC5(O)CCN(C(=O)C(C6CC6)C6CC6)CC5)cnc43)cc2)CO1` [Example 99, 6-Chloro-3-((1-(2,2-dicyclopropylacetyl)-4-hydroxypiperidin-4-yl)methyl)-7-(4-((3R,6S)-6-methylmorpholin-3-yl)phenyl)-3,7-dihydro-4H-pyrrolo[2,3-d]pyrimidin-4-one], for which the half-inhibitory concentration (IC50) reads like this: under setting [1], 0.25 to 2 µM; under setting [2], 0.263 µM.
Regarding `O=C(C[C@H](c1ccccc1)C(F)(F)F)N1CCC(O)(Cn2cnc3c(cc(Cl)n3-c3ccc([C@H]4COCCN4)c(C(F)(F)F)c3)c2=O)CC1` (mixture of isomers) [Example 87, 6-Chloro-3-((4-hydroxy-1-((R)-4,4,4-trifluoro-3-phenylbutanoyl)piperidin-4-yl)methyl)-7-(4-((S)-morpholin-3-yl)-3-(trifluoromethyl)phenyl)-3,7-dihydro-4H-pyrrolo[2,3-d]pyrimidin-4-one and 6-chloro-3-((4-hydroxy-1-((R)-4,4,4-trifluoro-3-phenylbutanoyl)piperidin-4-yl)methyl)-7-(4-((R)-morpholin-3-yl)-3-(trifluoromethyl)phenyl)-3,7-dihydro-4H-pyrrolo[2,3-d]pyrimidin-4-one (1:1)], the IC50 reads like this: under setting [1], 0.25 to 2 µM; under setting [2], 0.292 µM.
In the same order, the values of `CC1(C)COCC(c2ccc(-n3c(Cl)cc4c(=O)n(CC5(O)CCN(C(=O)C6(C)CC6)CC5)cnc43)cc2)N1` (stereo not shown) [Example 15, 6-Chloro-7-(4-(5,5-dimethylmorpholin-3-yl)phenyl)-3-((4-hydroxy-1-(1-methylcyclopropane-1-carbonyl)piperidin-4-yl)methyl)-3,7-dihydro-4H-pyrrolo[2,3-d]pyrimidin-4-one] are 0.1 to 0.25 µM and 0.169 µM.
Regarding `C[C@@H]1CN[C@@H](c2ccc(-n3c(Cl)cc4c(=O)n(CC5(O)CCN(C(=O)C6(C)CC6)CC5)cnc43)cc2)CO1` [Example 107, 6-Chloro-3-((4-hydroxy-1-(1-methylcyclopropane-1-carbonyl)piperidin-4-yl)methyl)-7-(4-((3S,6R)-6-methylmorpholin-3-yl)phenyl)-3,7-dihydro-4H-pyrrolo[2,3-d]pyrimidin-4-one], the 50% inhibitory concentration (IC50) by setting is: under setting [1], < 0.1 µM; under setting [2], 0.093 µM.
